US12187706B2, “NLRP3 modulators” (INNATE TUMOR IMMUNITY, INC., priority 2019, dated 2025)
pEC50: −log10 of the molar value.

Legend:
NLRP3 = biological target: T1, NLRP3 (Homo sapiens, UniProt Q96P20); test: Measurement of IL-1β production in PMA-differentiated THP-1 cells (NLRP3 hIL1B); format: cell-based
T1 construct: host or cells: PMA-differentiated THP-1 cells
Procedure, shortened: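 THP-1 cells differentiated with PMA, then replated in RPMI with 2% FBS and exposed to compound for 4 h (alternative: 2 h; hTRF protocol: 2 h at 37 °C, top concentration 10 μM). Supernatant IL-1β was quantified by ELISA or HTRF. Final DMSO 1%, with vehicle control.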

human TLR7 = biological target: T2, human TLR7 (Homo sapiens, UniProt Q9NYK1); test: In vitro human TLR7 reporter assay (HEK-Blue, NF-kB/AP1-inducible SEAP); format: cell-based; settings: at 50 μM
T2 construct: host or cells: human HEK-Blue cells with NF-kB/AP1-inducible SEAP reporter
T2 sequence (Q9NYK1 27-1049): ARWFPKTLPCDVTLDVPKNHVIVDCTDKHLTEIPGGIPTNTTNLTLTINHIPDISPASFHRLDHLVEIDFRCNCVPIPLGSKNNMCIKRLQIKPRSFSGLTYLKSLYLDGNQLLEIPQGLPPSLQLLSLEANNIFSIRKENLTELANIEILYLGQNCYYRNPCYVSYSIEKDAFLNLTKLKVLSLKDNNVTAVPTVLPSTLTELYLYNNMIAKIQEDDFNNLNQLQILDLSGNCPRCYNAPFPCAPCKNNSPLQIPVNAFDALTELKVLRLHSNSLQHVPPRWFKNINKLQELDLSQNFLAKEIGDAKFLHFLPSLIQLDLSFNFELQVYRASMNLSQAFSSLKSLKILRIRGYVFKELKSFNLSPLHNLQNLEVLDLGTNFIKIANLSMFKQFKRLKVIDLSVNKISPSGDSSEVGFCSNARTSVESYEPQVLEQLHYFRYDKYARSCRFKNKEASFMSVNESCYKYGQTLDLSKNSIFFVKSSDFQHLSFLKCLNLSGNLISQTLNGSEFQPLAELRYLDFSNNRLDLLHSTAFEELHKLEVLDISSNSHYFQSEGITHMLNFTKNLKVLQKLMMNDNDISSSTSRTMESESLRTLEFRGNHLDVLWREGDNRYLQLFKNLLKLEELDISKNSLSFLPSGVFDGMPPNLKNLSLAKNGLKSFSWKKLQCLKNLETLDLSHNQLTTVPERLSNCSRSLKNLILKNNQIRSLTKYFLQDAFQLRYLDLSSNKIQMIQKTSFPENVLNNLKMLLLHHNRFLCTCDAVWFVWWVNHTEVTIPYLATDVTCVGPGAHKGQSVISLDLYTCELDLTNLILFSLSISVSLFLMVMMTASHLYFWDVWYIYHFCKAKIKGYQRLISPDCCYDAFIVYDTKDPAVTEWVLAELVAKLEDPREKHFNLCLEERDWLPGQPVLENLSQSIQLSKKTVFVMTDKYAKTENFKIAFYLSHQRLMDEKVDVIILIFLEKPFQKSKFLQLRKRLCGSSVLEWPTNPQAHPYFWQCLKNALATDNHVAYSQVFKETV
Method: In Vitro Human TLR7 and TLR8 Binding Reporter Assays Logarithmically-growing human HEK-Blue cells co-expressing a TLR7 or TLR8 gene and a NF-kB/AP1-inducible SEAP (secreted embryonic alkaline phosphatase; […] Cellular SEAP production is measured using an Envision plate reader instrument thirty minutes after adding freshly-made Quanti-Blue reagent (prepared by following manufacturer instructions; Invivogen, San Diego, CA) to the HEK-Blue TLR Nf-kB-SEAP cell reactions. All EC50 values (half-maximal effective concentration) are determined using proprietary data analysis software.

T1 sequence (Q96P20 whole entry): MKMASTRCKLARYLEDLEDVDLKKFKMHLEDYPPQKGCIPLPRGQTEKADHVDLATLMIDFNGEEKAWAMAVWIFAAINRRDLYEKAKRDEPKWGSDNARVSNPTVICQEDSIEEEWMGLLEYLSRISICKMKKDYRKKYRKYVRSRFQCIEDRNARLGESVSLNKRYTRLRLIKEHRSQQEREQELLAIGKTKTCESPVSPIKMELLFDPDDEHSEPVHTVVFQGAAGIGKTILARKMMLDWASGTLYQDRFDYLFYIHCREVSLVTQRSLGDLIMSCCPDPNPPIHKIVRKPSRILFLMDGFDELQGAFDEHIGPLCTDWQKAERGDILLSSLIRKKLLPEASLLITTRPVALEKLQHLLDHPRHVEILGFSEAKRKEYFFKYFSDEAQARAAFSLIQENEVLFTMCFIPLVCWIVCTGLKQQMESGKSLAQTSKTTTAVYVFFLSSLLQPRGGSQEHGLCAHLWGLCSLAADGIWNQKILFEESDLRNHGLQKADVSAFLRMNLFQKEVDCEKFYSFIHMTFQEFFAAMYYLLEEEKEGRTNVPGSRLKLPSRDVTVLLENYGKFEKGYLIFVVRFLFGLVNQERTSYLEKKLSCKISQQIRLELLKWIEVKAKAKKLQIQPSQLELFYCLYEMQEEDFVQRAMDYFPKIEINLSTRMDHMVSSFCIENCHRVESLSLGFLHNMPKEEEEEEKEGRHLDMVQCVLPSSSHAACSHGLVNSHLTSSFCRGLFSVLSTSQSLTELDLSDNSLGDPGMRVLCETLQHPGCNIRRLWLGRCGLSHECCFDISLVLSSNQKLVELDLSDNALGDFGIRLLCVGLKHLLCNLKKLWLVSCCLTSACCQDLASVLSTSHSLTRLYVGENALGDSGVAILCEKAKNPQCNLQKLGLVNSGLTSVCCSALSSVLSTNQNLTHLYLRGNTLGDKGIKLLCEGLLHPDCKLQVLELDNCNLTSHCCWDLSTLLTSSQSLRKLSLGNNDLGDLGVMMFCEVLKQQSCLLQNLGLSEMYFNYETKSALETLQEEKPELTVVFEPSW

Nc1nc(OCCO)c2ccc(-c3ccn[nH]3)cc2n1 [Example 4, 2-((2-amino-7-(1H-pyrazol-3-yl)quinazolin-4-yl)oxy)ethan-1-ol]
pEC50 (NLRP3): 5.18
TLR7 agonist activity (human TLR7): < 50%
